In patent US11498921B1, “Pyrimidine or pyridine compounds, preparation method therefor and pharmaceutical uses thereof” (INVENTISBIO CO., LTD., priority 2014, dated 2022):
Where a name gives a salt, the structure may show the parent alone.

Key:
[1] = test system: NCI-H2073 cells (wild-type EGFR human non-small cell lung cancer); experiment: Cell growth inhibition (Cell Titer-Glo), NCI-H2073; type: cell-based; conditions: 72 hours drug treatment, 3 nM to 10 μM
Description: (§1) Experiment of Cell Growth Inhibition
The compounds that were preferentially targeted for EGFR targeting certain mutations and relatively weak in wild-type EGFR were identified by determining the growth of cells. The NCI-H1975 cell line is a human non-small cell lung cancer cell containing T790M and L858R EGFR mutations, and the cell is grown in RPMI-1640 medium (GIBCO) containing 10% fetal bovine serum (FBS). The LoVo cell line is a wild-type EGFR human colon adenocarcinoma cell, and is grown in F-12K medium (GIBCO) containing 10% FBS. NCI-H2073 cell line is a wild-type EGFR human non-small cell lung cancer cell and grown in ACL-4 medium containing 10% FBS. The growth rate of NCI-H1975, LoVo and NCI-H2073 cells was detected by Cell Titer-Glo luminescence activity assay (Promega #G7572).
(§2) Briefly, trypsin was used for digesting cells in the logarithmic growth phase. 96-well plates were seeded with 50,000 Lovo or NCI-H2073 cells, 2500-3000 NCI-H1975 cells per well and provided with blank control wells containing only nutrient solution without inoculated cell, and the plates were incubated in a humidified incubator with 5% CO2 at 37° C. After 24 hours, the DMSO solution of the different compounds was diluted with a cell culture medium at 3.16 times per time to eight different concentrations from high to low levels. The concentration of test drug in NCI-H1975 cells was from 0.03 nM to 100 nM, and that in LoVo and NCI-H2073 cells was from 3 nM to 10 μM. The cell culture medium containing the different compounds was then added to a 96-well cell plate in which one cell control well comprising cell culture medium only containing DMSO was provided. After a drug treatment for 72 hours, the cell plates were removed from the incubator and allowed to stand at room temperature for 30 minutes. Next, Cell Titer-Glo reagent was added to the wells and the 96-well cell plate was shaken at room temperature for 10 minutes to induce cell lysis. The 96-well cell plate was placed on the bench for 2 minutes to stabilize the luminescence signal. Finally, the 96-well cell plate was placed in an EnVision Multi-labeled Microplate Reader (PerkinElmer), and the signal was read with an integral time of 0.5 seconds.
(§3) Formula: Percentage of cell growth inhibition %=(maximum signal−compound signal)/(maximum signal−minimum signal)*100%
(§4) The maximal signal was obtained from the cell control well which were treated with the DMSO solution having no any compound;
(§5) The compound signal was obtained from the drug-treated cell wells to which the compound was added;
(§6) The minimum signal was obtained from a blank control well to which no cells and only nutrient solution was added.

[2] = Concentration of parent drug and metabolite AZ5104 in rat plasma; type: in vivo; conditions: po, adult male rats, intragastrically, 10 mg/kg, 0.25-24 hours
Description: Comparison of the concentration of the metabolite AZ5104 in rats' body plasma of the pyrimidine compounds according to the present invention and AZD9291
Briefly, AZD9291 or the compound 49.(HCl)n of Example 49 or the compound 104.(MsOH) of Example 104 were administered intragastrically to 200-220 g of adult male rats at amount of 10 mg/kg. Each administration group had two to three rats. After administration, 150 μl of blood was extracted from the vein on the rat tail at different times (0.25, 0.5, 1, 2, 4, 6, 8, 12 and 24 hours), put in a tube with K2EDTA and placed immediately on ice. Then, the blood sample was centrifuged in centrifuge with a 4-degree at a speed of 2000 g for 15 minutes. The plasma was separated and placed in a small tube and stored in a refrigerator at −80° C. The concentration of parent drug and metabolite in plasma sample was analyzed by LC/MS.

[3] = test system: NCI-H1975 cells (T790M and L858R EGFR mutations); experiment: Cell growth inhibition (Cell Titer-Glo), NCI-H1975; type: cell-based; conditions: Homo sapiens, 72 hours drug treatment, 0.03 nM to 100 nM
Description: as §1
(§7) The LoVo cell line is a wild-type EGFR human colon adenocarcinoma cell, and is grown in F-12K medium (GIBCO) containing 10% FBS. NCI-H2073 cell line is a wild-type EGFR human non-small cell lung cancer cell and grown in ACL-4 medium containing 10% FBS. The growth rate of NCI-H1975, LoVo and NCI-H2073 cells was detected by Cell Titer-Glo luminescence activity assay (Promega #G7572).
as §2, with “After 24 hours, the DMSO solution of the different compounds was diluted with a cell culture medium at 3.16 times per time to eight different concentrations from high to low levels.” left out
as §3, §4, §5, §6

[4] = test system: LoVo cells (wild-type EGFR human colon adenocarcinoma); experiment: Cell growth inhibition (Cell Titer-Glo), LoVo; type: cell-based; conditions: 72 hours drug treatment, 3 nM to 10 μM
Description: as §1, §7
as §2, with “After 24 hours, the DMSO solution of the different compounds was diluted with a cell culture medium at 3.16 times per time to eight different concentrations from high to low levels.” left out
as §3, §4, §5, §6

Row | IC50 [1] [nM] | AUC [2] [µM·h] | IC50 [3] [nM] | IC50 [4] [nM] | Structure (SMILES)
1 | 977 | 1.49 | 16.5 |  | C=CC(=O)Nc1cc(Nc2nccc(-c3cn(CC(F)(F)F)c4ccccc34)n2)c(OC)cc1N(C)CCN(C)C [104. (MsOH)2]
2 |  | 0.64 |  |  | C=CC(=O)Nc1cc(Nc2nccc(-c3cn(C)c4ccccc34)n2)c(OC)cc1N(C)CCN(C)C [AZD9291, reference compound]
3 | 325 |  | 2.6 | 1280 | C=CC(=O)Nc1cc(Nc2nccc(-c3nn(CC)c4ccccc34)n2)c(OC)cc1N(C)CCN(C)C [51. (HCl)n]
4 | 490 |  | 7.1 | 7100 | C=CC(=O)Nc1cc(Nc2nccc(-c3cccc4c3cnn4C)n2)c(OC)cc1N(C)CCN(C)C [42. (HCl)n]
5 | 476 |  | 8.2 | 2990 | C=CC(=O)Nc1cc(Nc2nccc(N3CC4(CC4)c4ccccc43)n2)c(OC)cc1N(C)CCN(C)C [38. (HCl)n]
6 | 183 |  | 1.3 | 6090 | C=CC(=O)Nc1cc(Nc2nccc(-n3c(=O)n(C)c4ccccc43)n2)c(OC)cc1N(C)CCN(C)C [40. (MsOH)3]
7 | 135 | 0.91 | 0.7 | 2260 | C=CC(=O)Nc1cc(Nc2nccc(-c3cn(S(C)(=O)=O)c4ccccc34)n2)c(OC)cc1N(C)CCN(C)C [49. (HCl)n]
8 | 295 |  | 6.2 | 3090 | C=CC(=O)Nc1cc(Nc2nccc(-n3ccc4ccccc43)n2)c(OC)cc1N(C)CCN(C)C [3. (MsOH)2]
